Our source for the Ki values is patent US8399674B2, “Quinolines” (Hoffman-La Roche Inc., priority 2007, dated 2013).

T1 sequence (P47898 whole entry): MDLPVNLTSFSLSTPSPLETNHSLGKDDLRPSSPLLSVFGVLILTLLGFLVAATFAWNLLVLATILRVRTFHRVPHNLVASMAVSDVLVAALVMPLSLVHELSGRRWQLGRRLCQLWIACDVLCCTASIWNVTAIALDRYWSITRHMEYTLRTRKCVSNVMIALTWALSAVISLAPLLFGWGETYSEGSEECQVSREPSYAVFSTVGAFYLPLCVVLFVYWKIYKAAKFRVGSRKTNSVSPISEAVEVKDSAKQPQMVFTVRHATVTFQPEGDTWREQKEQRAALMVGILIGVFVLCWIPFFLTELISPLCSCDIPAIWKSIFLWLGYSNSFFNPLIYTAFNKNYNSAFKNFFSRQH

The test addresses T1, recombinant human 5-HT5A receptor (Homo sapiens, UniProt P47898).
T1 construct: expressed in transfected cells; host or cells: HEK-EBNA (Human Embryonic Kidney-EBNA) cells, transient transfection; membranes
In words: [3H]LSD radioligand binding assay, membranes of HEK-EBNA cells transiently expressing the receptor. Particulars: [3H]LSD approx. 1 nM, 120 min room temperature, Ki from IC50 by Cheng-Prussoff equation, read-out: Ki (affinity towards the human 5-HT5A receptor). The method, then:
A [^3H] LSD radioligand binding assay was used to determine the affinity of the compounds for the recombinant human 5-HT5A receptor, in membranes from transiently (cDNA) expressed 5-HT5A receptors in Human Embryonic Kidney-EBNA (HEK-EBNA) cells.
Assay buffer consisted of Tris (50 mM) buffer containing 1 mM EGTA, 10 mM MgCl2 (pH 7.4) and 10 μM pargyline. The binding assay was carried out in 96-well-plates in the presence of [^3H]LSD (approximately 1 nM), approximately 2 μg/well of membrane protein, and 0.5 mg of Ysi-poly-1-lysine SPA beads in a final volume of 200 μl of buffer. Non-specific binding was defined using methiothepin 2 μM. Compounds were tested at 10 concentrations. All assays were conducted in duplicate and repeated at least two times. Assay plates were incubated for 120 min at room temperature before centrifugation. Bound ligand was determined using a Packard Topcount scintillation counter. IC50 values were calculated using a non-linear curve fitting program and Ki values calculated using the Cheng-Prussoff equation.
Turning to `c1cncc(CNc2ccc3nc(NCc4cccc5c4OCO5)ccc3c2)c1` [Example 73, N2-Benzo[1,3]dioxol-4-ylmethyl-N6-pyridin-3-ylmethyl-quinoline-2,6-diamine], the Ki (as a rule, the equilibrium dissociation constant of an inhibitor or competing ligand from its target) is 27 nM.
As for `COc1cccc(CNc2ccc3cc(NCc4cccnc4)ccc3n2)c1` [Example 57, N2-(3-Methoxy-benzyl)-N6-pyridin-3-ylmethyl-quinoline-2,6-diamine], the Ki came out at 37 nM.
For the molecule `COc1ccccc1CNc1ccc2cc(COc3ccccc3)ccc2n1` [Example 43, (2-Methoxy-benzyl)-(6-phenoxymethyl-quinolin-2-yl)-amine], the Ki was 73 nM.
In the case of `c1ccc(OCCNc2ccc3cc(NCc4ccncc4)ccc3n2)cc1` [Example 7, N2-(2-Phenoxy-ethyl)-N6-pyridin-4-ylmethyl-quinoline-2,6-diamine], the Ki was 101 nM.
In the case of `COc1ccc(OC(=O)Nc2ccc3nc(NCc4ccccc4OC)ccc3c2)cc1` [Example 80, [2-(2-Methoxy-benzylamino)-quinolin-6-yl]-carbamic acid 4-methoxy-phenyl ester] it was 87 nM; in that of `COc1ccccc1CNc1ccc2cc(/C=C/c3cccnc3)ccc2n1` [Example 14, (2-Methoxy-benzyl)-[6-((E)-2-pyridin-3-yl-vinyl)-quinolin-2-yl]-amine], 60 nM.
As for `COc1cccc(-c2cc(NCc3ccccc3OC)nc3ccc(NCc4cccnc4)cc23)c1` [Example 33, N-2-(2-Methoxy-benzyl)-4-(3-methoxy-phenyl)-N-6-pyridin-3-ylmethyl-quinoline-2,6-diamine], the Ki turned out to be 50 nM.
As for `Cc1ccc(CNc2cc(N)c3cc(NCc4ccccc4)ccc3n2)o1` [Example 55, N6-Benzyl-N2-(5-methyl-furan-2-ylmethyl)-quinoline-2,4,6-triamine], the inhibition constant (Ki) came out at 22 nM.
Under `COc1ccccc1CNc1ccc2cc(Nc3cccc(CCO)c3)ccc2n1` [Example 103, 2-{3-[2-(2-Methoxy-benzylamino)-quinolin-6-ylamino]-phenyl}-ethanol] stands 25 nM.
Take `COc1cc(F)ccc1CNc1cc(-c2ccccc2)c2cc(NCc3ccccc3)ccc2n1` [Example 36, N-6-Benzyl-N-2-(4-fluoro-2-methoxy-benzyl)-4-phenyl-quinoline-2,6-diamine]: the Ki was determined as 42 nM.
Turning to `Cc1ccc(CNc2ccc3cc(NCc4ccccc4)ccc3n2)o1` [Example 29, N6-Benzyl-N2-(5-methyl-furan-2-ylmethyl)-quinoline-2,6-diamine], the Ki came to 32 nM.
Under `COc1ccccc1CNc1ccc2cc(NCc3cccnc3)ccc2n1` [Example 6, N2-(2-Methoxy-benzyl)-N6-pyridin-3-ylmethyl-quinoline-2,6-diamine] stands 27 nM; under `COc1cc(F)ccc1CNc1cc(-c2ccccc2)c2cc(NCc3ccncc3)ccc2n1` [Example 37, N-2-(4-Fluoro-2-methoxy-benzyl)-4-phenyl-N-6-&-pyridin-4-ylmethyl-quinoline-2,6-diamine], 40 nM; under `Cc1ccc(CNc2ccc3cc(CNc4cccnc4)ccc3n2)o1` [Example 49, (5-Methyl-furan-2-ylmethyl)-[6-(pyridin-3-ylaminomethyl)-quinolin-2-yl]-amine], 128 nM.
With `COc1ccccc1CNc1ccc2nc(NCc3ccccc3OC)cc(-c3ccccc3)c2c1` [Example 20, N2,N6-Bis-(2-methoxy-benzyl)-4-phenyl-quinoline-2,6-diamine], the Ki is 30 nM.
Consider `COc1cccc(CNc2ccc3nc(NCc4ccccc4OC)cc(-c4ccccc4)c3c2)c1` [Example 19, N6-(3-Methoxy-benzyl)-N2-(2-methoxy-benzyl)-4-phenyl-quinoline-2,6-diamine], for which the inhibition constant Ki was 22 nM.
For `Cc1ccc(CNc2cc(N)c3cc(NCc4cccnc4)ccc3n2)o1` [Example 54, N2-(5-Methyl-furan-2-ylmethyl)-N6-pyridin-3-ylmethyl-quinoline-2,4,6-triamine], the inhibition constant (Ki) is 22 nM.
`COCCNc1cc(NCc2ccc(F)cc2OC)nc2ccc(NCc3ccccc3)cc12` [Example 42, N6-Benzyl-N2-(4-fluoro-2-methoxy-benzyl)-N4-(2-methoxy-ethyl)-quinoline-2,4,6-triamine]: the Ki turned out to be 169 nM.
With `COc1ccccc1CNc1ccc2cc(CCc3ccccc3)ccc2n1` [Example 4, (2-Methoxy-benzyl)-(6-phenethyl-quinolin-2-yl)-amine], the Ki was determined as 104 nM.
Regarding `COc1ccc(NC(=O)Nc2ccc3nc(NCc4ccccc4OC)ccc3c2)cc1` [Example 79, 1-[2-(2-Methoxy-benzylamino)-quinolin-6-yl]-3-(4-methoxy-phenyl)-urea], the Ki came to 30 nM.
`COc1ccccc1CNc1cc(-c2ccccc2)c2cc(NCc3cccnc3)ccc2n1` [Example 13, N2-(2-Methoxy-benzyl)-4-phenyl-N6-pyridin-3-ylmethyl-quinoline-2,6-diamine]: the Ki worked out at 11 nM.
On to `COc1cc(F)ccc1CNc1cc(-c2ccccc2)c2cc(NCc3cccnc3)ccc2n1` [Example 31, N-2-(4-Fluoro-2-methoxy-benzyl)-4-phenyl-N-6-pyridin-3-ylmethyl-quinoline-2,6-diamine], for which the Ki turned out to be 17 nM.
In the case of `COc1ccccc1CNc1ccc2cc(CCc3cccnc3)ccc2n1` [Example 18, (2-Methoxy-benzyl)-[6-(2-pyridin-3-yl-ethyl)-quinolin-2-yl]-amine] it was 87 nM; in that of `COc1ccccc1CNc1ccc2cc(NCc3ccccc3OC(F)(F)F)ccc2n1` [Example 17, N2-(2-Methoxy-benzyl)-N6-(2-trifluoromethoxy-benzyl)-quinoline-2,6-diamine], 25 nM.
In the case of `COc1ccccc1CNc1ccc2nc(NCc3ccc(C)o3)ccc2c1` [Example 27, N6-(2-Methoxy-benzyl)-N2-(5-methyl-furan-2-ylmethyl)-quinoline-2,6-diamine], the Ki is 30 nM.
With `COc1cccc(CNc2ccc3nc(NCc4ccc(C)o4)ccc3c2)c1` [Example 28, N6-(3-Methoxy-benzyl)-N2-(5-methyl-furan-2-ylmethyl)-quinoline-2,6-diamine], the Ki stood at 44 nM.
For the molecule `COc1ccccc1CNc1cc(N)c2cc(NCc3cccnc3)ccc2n1` [Example 51, N2-(2-Methoxy-benzyl)-N6-pyridin-3-ylmethyl-quinoline-2,4,6-triamine], the Ki was 15 nM.
For `COc1ccccc1CNc1ccc2nc(NCCOc3ccccc3)ccc2c1` [Example 9, N6-(2-Methoxy-benzyl)-N2-(2-phenoxy-ethyl)-quinoline-2,6-diamine], the Ki was 26 nM.
With `COc1cccc(CNc2ccc3nc(NCc4ccccc4OC)ccc3c2)c1` [Example 16, N6-(3-Methoxy-benzyl)-N2-(2-methoxy-benzyl)-quinoline-2,6-diamine], the Ki is 17 nM.
As to `COc1cc(F)ccc1CNc1cc(-c2ccccc2C)c2cc(NCc3ccccc3)ccc2n1` [Example 38, N-6-2-Benzyl-N-2-(4-fluoro-2-methoxy-benzyl)-4-o-tolyl-quinoline-2,6-diamine], the Ki is 41 nM.
For the molecule `COc1ccccc1CNc1ccc2cc(NCCCn3ccnc3)ccc2n1` [Example 23, N6-(3-Imidazol-1-yl-propyl)-N2-(2-methoxy-benzyl)-quinoline-2,6-diamine], the inhibitory constant (Ki) was 129 nM.
For the molecule `COc1ccccc1CNc1cc(-c2cc(F)ccc2F)c2cc(NCc3cccnc3)ccc2n1` [Example 35, 4-(2,5-Difluoro-phenyl)-N2-(2-methoxy-benzyl)-N6-pyridin-3-ylmethyl-quinoline-2,6-diamine], the inhibition constant Ki was found to be 22 nM.
With `COc1ccccc1CNc1ccc2nc(NCc3ccccc3OC)ccc2c1` [Example 15, N2,N6-Bis-(2-methoxy-benzyl)-quinoline-2,6-diamine], the Ki came out at 17 nM.
On to `c1ccc(OCCNc2ccc3cc(NCc4cccnc4)ccc3n2)cc1` [Example 1, N2-(2-Phenoxy-ethyl)-N6-pyridin-3-ylmethyl-quinoline-2,6-diamine], for which the Ki was 22 nM.
Turning to `COc1ccccc1CNc1cc(N)c2cc(NCc3ccccc3)ccc2n1` [Example 47, N6-Benzyl-N2-(2-methoxy-benzyl)-quinoline-2,4,6-triamine], the Ki turned out to be 30 nM.
Turning to `COc1ccccc1CNc1ccc2cc(NS(=O)(=O)Nc3ccc(F)cc3)ccc2n1` [Example 81, N-(4-fluorophenyl)-N′-{2-[(2-methoxybenzyl)amino]quinolin-6-yl}sulfamide], the Ki stood at 40 nM.
Take `Cc1ccc(CNc2ccc3cc(NCc4cccnc4)ccc3n2)o1` [Example 25, N2-(5-Methyl-furan-2-ylmethyl)-N6-pyridin-3-ylmethyl-quinoline-2,6-diamine]: the Ki was found to be 22 nM.
With `COc1ccccc1CNc1ccc2cc(NCc3ccccc3)ccc2n1` [Example 8, N6-Benzyl-N2-(2-methoxy-benzyl)-quinoline-2,6-diamine], the Ki was 22 nM.
On to `COc1cccc(CNc2ccc3nc(NCCOc4ccccc4)ccc3c2)c1` [Example 10, N6-(3-Methoxy-benzyl)-N2-(2-phenoxy-ethyl)-quinoline-2,6-diamine], for which the inhibitory constant (Ki) turned out to be 42 nM.
Under `COc1ccccc1CNc1cc(-c2ccccc2C)c2cc(NCc3cccnc3)ccc2n1` [Example 32, N2-(2-Methoxy-benzyl)-N6-pyridin-3-ylmethyl-4-o-tolyl-quinoline-2,6-diamine] stands 12 nM.
